Results on 30 molecules are retold here after patent publication US8575201B2 (Boehringer Ingelheim International GmbH, priority 2010, dated 2013).

Assay [1] addresses recombinant human FLAP protein (Homo sapiens (Human), UniProt P20292). Nature of the assay: FLAP binding assay (Scintillation Proximity Assay, displacement of [125I]L-691,831). Particulars: read-out: FLAP SPA IC50. In short, it runs like this: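 Scintillation proximity displacement of an iodinated (125I) FLAP inhibitor by test compounds, using 100,000×g membrane fraction from lysed cells. Final beads 200 μg/well and protein 5 μg/well; plates shaken 2 h before reading.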

In assay [2] the test system is synthesis of LTB4 in human whole blood. The assay is described as follows: Human whole blood LTB4 production inhibition assay. Type of assay: cell-based. The settings on record: calcimycin stimulated, read-out: hWB LTB4 IC50. In short, it runs like this: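 Readout: plasma LTB4 by antibody-based HTRF. Compound added to heparinized human whole blood, 15 min 37° C; calcimycin 20 μM final (PBS pH 7.4), 30 min 37° C; spun 1500×g 5 min, plasma taken.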

Structures are written as SMILES.

Chain of recombinant human FLAP protein (P20292 whole entry): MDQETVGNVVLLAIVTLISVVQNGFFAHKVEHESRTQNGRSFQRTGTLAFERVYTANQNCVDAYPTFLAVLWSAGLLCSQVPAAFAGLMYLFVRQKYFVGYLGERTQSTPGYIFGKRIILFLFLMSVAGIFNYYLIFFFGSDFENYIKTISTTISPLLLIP

One may read the IC50 as the concentration that gives 50% inhibition. Turning to `Nc1ncc(-c2ccc(C3(c4noc(-c5cnn(CC(F)(F)F)c5)n4)CCC3)cn2)cn1` [Example 69, 5-[5-(1-{5-[1-(2,2,2-trifluoroethyl)-1H-pyrazol-4-yl]-1,2,4-oxadiazol-3-yl}cyclobutyl)pyridin-2-yl]pyrimidin-2-amine], the IC50 in assay [1] is 7.6 nM; in assay [2], 170 nM.

On to `NC(=O)Cn1cc(-c2nc(C3(c4ccc(-c5cnc(N)nc5)nc4)CCC3)no2)cn1` [Example 70, 2-[4-(3-{1-[6-(2-aminopyrimidin-5-yl)pyridin-3-yl]cyclobutyl}-1,2,4-oxadiazol-5-yl)-1H-pyrazol-1-yl]acetamide], for which the IC50 in assay [1] turned out to be 150 nM; in assay [2], 2100 nM.

On to `CS(=O)(=O)Cn1cc(-c2nc(C3(c4ccc(-c5cnc(N)nc5)nc4)CCC3)no2)cn1` [Example 71, 5-{5-[1-(5-{1-[(methylsulfonyl)methyl]-1H-pyrazol-4-yl}-1,2,4-oxadiazol-3-yl)cyclobutyl]pyridin-2-yl}pyrimidin-2-amine], for which the IC50 in assay [1] was determined as 58 nM; in assay [2], 390 nM.

With `Nc1ncc(-c2ccc(C3(c4noc(-c5cccnc5)n4)CCOCC3)cn2)cn1` [Example 72, 5-(5-{4-[5-(pyridin-3-yl)-1,2,4-oxadiazol-3-yl]tetrahydro-2H-pyran-4-yl}pyridin-2-yl)pyrimidin-2-amine], the values for the IC50 in assay [1] and in assay [2] were 610 nM and 2300 nM, respectively.

`Nc1ncc(-c2ccc(C3(c4noc(-c5cccnc5)n4)CCC3)cn2)cn1` [Example 73, 5-{5-[1-(5-Pyridin-3-yl-1,2,4-oxadiazol-3-yl)-cyclobutyl]-pyridin-2-yl}-pyrimidin-2-ylamine]: the figures for the IC50 in assay [1] and in assay [2] were 25 nM and 460 nM, respectively.

Take `Cc1ccc(-c2nc(C3(c4ccc(-c5cnc(N)nc5)nc4)CCC3)no2)cn1` [Example 74, 5-(5-{1-[5-(6-methylpyridin-3-yl)-1,2,4-oxadiazol-3-yl]cyclobutyl}pyridin-2-yl)pyrimidin-2-amine]: the IC50 worked out at 4.5 nM in assay [1] and 210 nM in assay [2].

`Nc1ncc(-c2ccc(C3(c4noc(-c5c[nH]cn5)n4)CCC3)cn2)cn1` [Example 75, 5-(5-{1-[5-(1H-imidazol-4-yl)-1,2,4-oxadiazol-3-yl]cyclobutyl}pyridin-2-yl)pyrimidin-2-amine]: the IC50 is 19 nM in assay [1] and 580 nM in assay [2].

For the molecule `Nc1ncc(-c2ccc(C3(c4noc(N5CCCC5)n4)CCC3)cn2)cn1` [Example 76, 5-(5-{1-[5-(pyrrolidin-1-yl)-1,2,4-oxadiazol-3-yl]cyclobutyl}pyridin-2-yl)pyrimidin-2-amine], the values for the IC50 in assay [1] and in assay [2] were 92 nM and 920 nM, respectively.

Take `Cn1cccc(-c2nc(C3(c4ccc(-c5cnc(N)nc5)nc4)CCC3)no2)c1=O` [Example 77, 3-(3-{1-[6-(2-aminopyrimidin-5-yl)pyridin-3-yl]cyclobutyl}-1,2,4-oxadiazol-5-yl)-1-methylpyridin-2(1H)-one]: the concentration for half-maximal inhibition (IC50) in assay [1] amounted to 51 nM; in assay [2] it was 490 nM.

Consider `Cc1n[nH]cc1-c1nc(C2(c3ccc(-c4cnc(N)nc4)nc3)CCC2)no1` [Example 78, 5-(5-{1-[5-(3-methyl-1H-pyrazol-4-yl)-1,2,4-oxadiazol-3-yl]cyclobutyl}pyridin-2-yl)pyrimidin-2-amine], for which the results for the IC50 in assay [1] and in assay [2] were 4.7 nM and 220 nM, respectively.

Take `Cc1cc(-c2nc(C3(c4ccc(-c5cnc(N)nc5)nc4)CCC3)no2)[nH]n1` [Example 80, 5-(5-{1-[5-(3-methyl-1H-pyrazol-5-yl)-1,2,4-oxadiazol-3-yl]cyclobutyl}pyridin-2-yl)pyrimidin-2-amine]: the IC50 turned out to be 5.5 nM in assay [1] and 160 nM in assay [2].

With `COC(=O)c1ccc(-c2nc(C3(c4ccc(-c5cnc(N)nc5)nc4)CCC3)no2)cn1` [Example 81, methyl 5-(3-{1-[6-(2-aminopyrimidin-5-yl)pyridin-3-yl]cyclobutyl}-1,2,4-oxadiazol-5-yl)pyridine-2-carboxylate], the IC50 in assay [1] is 25 nM; in assay [2], 790 nM.

For the molecule `CC(C)(O)c1ccc(-c2nc(C3(c4ccc(-c5cnc(N)nc5)nc4)CCC3)no2)cn1` [Example 82, 2-[5-(3-{1-[6-(2-aminopyrimidin-5-yl)pyridin-3-yl]cyclobutyl}-1,2,4-oxadiazol-5-yl)pyridin-2-yl]propan-2-ol], the results for the IC50 in assay [1] and in assay [2] were 17 nM and 480 nM, respectively.

For `N#Cc1ccc(-c2nc(C3(c4ccc(-c5cnc(N)nc5)nc4)CCC3)no2)cn1` [Example 83, 5-(3-{1-[6-(2-aminopyrimidin-5-yl)pyridin-3-yl]cyclobutyl}-1,2,4-oxadiazol-5-yl)pyridine-2-carbonitrile], the 50% inhibitory concentration (IC50) turned out to be 52 nM in assay [1] and 410 nM in assay [2].

In the case of `Nc1ncc(-c2ccc(C3(c4noc(-c5cccnc5Cl)n4)CCC3)cn2)cn1` [Example 84, 5-(5-{1-[5-(2-chloropyridin-3-yl)-1,2,4-oxadiazol-3-yl]cyclobutyl}pyridin-2-yl)pyrimidin-2-amine], the IC50 in assay [1] is 4.1 nM; in assay [2], 280 nM.

On to `Cc1ncccc1-c1nc(C2(c3ccc(-c4cnc(N)nc4)nc3)CCC2)no1` [Example 85, 5-(5-{1-[5-(2-methylpyridin-3-yl)-1,2,4-oxadiazol-3-yl]cyclobutyl}pyridin-2-yl)pyrimidin-2-amine], for which the figures for the 50% inhibitory concentration (IC50) in assay [1] and in assay [2] were 21 nM and 1000 nM, respectively.

On to `COc1ccncc1-c1nc(C2(c3ccc(-c4cnc(N)nc4)nc3)CCC2)no1` [Example 86, 5-(5-{1-[5-(4-methoxypyridin-3-yl)-1,2,4-oxadiazol-3-yl]cyclobutyl}pyridin-2-yl)pyrimidin-2-amine], for which the IC50 was 18 nM in assay [1] and 1100 nM in assay [2].

As for `Nc1ncc(-c2ccc(C3(c4noc(-c5ccncc5)n4)CCC3)cn2)cn1` [Example 87, 5-(5-{1-[5-(pyridin-4-yl)-1,2,4-oxadiazol-3-yl]cyclobutyl}pyridin-2-yl)pyrimidin-2-amine], the values for the IC50 in assay [1] and in assay [2] were 55 nM and 1000 nM, respectively.

With `Nc1ncc(-c2ccc(C3(c4noc(-c5cnccc5Cl)n4)CCC3)cn2)cn1` [Example 88, 5-(5-{1-[5-(4-chloropyridin-3-yl)-1,2,4-oxadiazol-3-yl]cyclobutyl}pyridin-2-yl)pyrimidin-2-amine], the IC50 worked out at 7.3 nM in assay [1] and 490 nM in assay [2].

As to `Nc1ncc(-c2ccc(C3(c4noc(-c5ccc(N6CCOCC6)nc5)n4)CCC3)cn2)cn1` [Example 89, 5-[5-(1-{5-[6-(morpholin-4-yl)pyridin-3-yl]-1,2,4-oxadiazol-3-yl}cyclobutyl)pyridin-2-yl]pyrimidin-2-amine], the concentration for half-maximal inhibition (IC50) worked out at 2.7 nM in assay [1] and 180 nM in assay [2].

For `Nc1ncc(-c2ccc(C3(c4noc(-c5cn[nH]c5)n4)CCC3)cn2)cn1` [Example 90, 5-(5-{1-[5-(1H-pyrazol-4-yl)-1,2,4-oxadiazol-3-yl]cyclobutyl}pyridin-2-yl)pyrimidin-2-amine], the IC50 amounted to 7 nM in assay [1] and 140 nM in assay [2].

On to `Nc1ncc(-c2ccc(C3(c4noc(-c5ccnc(O)c5)n4)CCC3)cn2)cn1` [Example 91, 4-(3-{1-[6-(2-aminopyrimidin-5-yl)pyridin-3-yl]cyclobutyl}-1,2,4-oxadiazol-5-yl)pyridin-2-ol], for which the results for the IC50 in assay [1] and in assay [2] were 24 nM and 330 nM, respectively.

For the molecule `Nc1ncc(-c2ccc(C3(c4noc(-c5ccncn5)n4)CCC3)cn2)cn1` [Example 92, 5-(5-{1-[5-(pyrimidin-4-yl)-1,2,4-oxadiazol-3-yl]cyclobutyl}pyridin-2-yl)pyrimidin-2-amine], the IC50 in assay [1] was determined as 130 nM; in assay [2], 2200 nM.

`COc1cc(-c2nc(C3(c4ccc(-c5cnc(N)nc5)nc4)CCC3)no2)ccn1` [Example 93, 5-(5-{1-[5-(2-methoxypyridin-4-yl)-1,2,4-oxadiazol-3-yl]cyclobutyl}pyridin-2-yl)pyrimidin-2-amine]: the IC50 amounted to 9.6 nM in assay [1] and 400 nM in assay [2].

Regarding `Cc1nc(C)c(-c2nc(C3(c4ccc(-c5cnc(N)nc5)nc4)CCC3)no2)s1` [Example 94, 5-(5-{1-[5-(2,4-dimethyl-1,3-thiazol-5-yl)-1,2,4-oxadiazol-3-yl]cyclobutyl}pyridin-2-yl)pyrimidin-2-amine], the IC50 in assay [1] was 8.1 nM; in assay [2], 650 nM.

As to `Nc1ncc(-c2ccc(C3(c4noc(-c5ccc[nH]c5=O)n4)CCC3)cn2)cn1` [Example 95, 3-(3-{1-[6-(2-aminopyrimidin-5-yl)pyridin-3-yl]cyclobutyl}-1,2,4-oxadiazol-5-yl)pyridin-2(1H)-one], the values for the IC50 in assay [1] and in assay [2] were 29 nM and above 5000 nM, respectively.

Turning to `COc1ccc(-c2nc(C3(c4ccc(-c5cnc(N)nc5)nc4)CCC3)no2)c(OC)n1` [Example 96, 5-(5-{1-[5-(2,6-dimethoxypyridin-3-yl)-1,2,4-oxadiazol-3-yl]cyclobutyl}pyridin-2-yl)pyrimidin-2-amine], the IC50 in assay [1] came to 7.3 nM; in assay [2], 1100 nM.

As for `Cc1ccc(-c2nc(C3(c4ccc(-c5cnc(N)nc5)nc4)CCC3)no2)c(O)n1` [Example 97, 3-(3-{1-[6-(2-aminopyrimidin-5-yl)pyridin-3-yl]cyclobutyl}-1,2,4-oxadiazol-5-yl)-6-methylpyridin-2-ol], the IC50 is 19 nM in assay [1] and above 5000 nM in assay [2].

Take `Nc1ncc(-c2ccc(C3(c4noc(-c5cnco5)n4)CCC3)cn2)cn1` [Example 98, 5-(5-{1-[5-(1,3-oxazol-5-yl)-1,2,4-oxadiazol-3-yl]cyclobutyl}pyridin-2-yl)pyrimidin-2-amine]: the values for the IC50 in assay [1] and in assay [2] were 110 nM and above 5000 nM, respectively.

Regarding `Nc1ncc(-c2ccc(C3(c4noc(-c5ccc(Cl)nc5)n4)CCC3)cn2)cn1` [Example 99, 5-(5-{1-[5-(6-chloropyridin-3-yl)-1,2,4-oxadiazol-3-yl]cyclobutyl}pyridin-2-yl)pyrimidin-2-amine], the IC50 was determined as 7.5 nM in assay [1] and 660 nM in assay [2].
